{"source": "patent US7452869B2", "about": "“NIP3 family of proteins” (University of Manitoba, priority 2000, dated 2008)", "key": {"[1]": {"system": "BNIP3", "test": "western blot of BNIP3 in neonatal cardiac myocytes treated with lactacystin (FIG. 12)", "format": "cell-based", "conditions": "hypoxic or normoxic 24 hours", "method": "Neonatal cardiac myocytes were incubated in hypoxic (+) or normoxic (−) conditions for 24 hours. Cells were treated with lactacystin at the indicated concentrations and lysates harvested for western blotting with anti-BNIP3 antibody. BNIP3 band is indicated with an arrow."}, "[2]": {"system": "ventricular myocytes", "test": "cell viability of ventricular myocytes, calcein acetoxymethyl ester / ethidium homodimer-1", "format": "cell-based", "conditions": "Bongkrekic acid 50 μmol/L", "method": "Ventricular myocytes were isolated from 1- to 2-day-old Sprague-Dawley rats (University of Manitoba, Winnipeg, Canada) and submitted to primary culture as reported (Kirshenbaum and Schneider, 1995). Myocytes were subjected to hypoxia for 24 hours in an air-tight chamber continually gassed with 95% N2-5% CO2, as previously reported (Moissac et al., 2000; Long et al., 1997; Tanaka et al., 1994). Adult rat hearts (n=3) were excised from adult rats (250 to 300 g) and subjected to global hypoxia for 1 hour on a modified Langendorff perfusion system with buffer continually gassed with 95% N2-5% CO2, as previously reported (Kirshenbaum, 1993). Heart failure was induced in rats by surgical ligation of the left anterior descending coronary artery, as previously reported (Dixon et al., 1992). Non-failing sham control hearts and those with heart failure were excised from animals 8 weeks after myocardial infarction. Hearts (n=3) were dissected to remove the infarcted scar tissue, and the left ventricular free wall was homogenized and analyzed by Western blot for BNIP3 expression. Animals were handled according to guidelines established by the University of Manitoba and Canadian Council on Animal Care.\nThe cDNAs for BNIP3 full-length (BNIP3) and carboxyl terminal transmembrane domain deletion mutant (BNIP3ΔTM) have been described previously (Vande et al., 2000). Recombinant adenoviruses encoding the full-length BNIP3 or transmembrane deletion mutant are designated AdBNIP3 or AdBNIP3ΔTM, respectively, and generated as reported previously (Kirshenbaum et al., 1993).\nCell viability was determined using the vital dyes 2 μmol/L calcein acetoxymethyl ester (green) to determine the number of living cells and 2 μmol/L ethidium homodimer-1 (red) (Molecular Probes) to identify the number of dead cells (Kirshenbaum and Schneider, 1995). The number of green cells versus red cells was used to determine changes in cell viability (Moissac et al., 2000). Cells were analyzed from at least n=3 independent myocyte isolations counting ≧200 cells for each condition tested. Data are expressed as mean±SE percent reduction from control."}, "[3]": {"system": "mitochondrial permeability transition pore", "test": "mitochondrial permeability transition in ventricular myocytes, calcein-AM with cobalt chloride", "format": "cell-based, rat", "conditions": "Bongkrekic acid 50 μmol/L", "excerpt": "To monitor mitochondrial permeability transition (PT), ventricular myocytes were loaded with 5 μmol/L calcein-acetoxymethylester (calcein-AM, Molecular Probes) in the presence of 2 to 5 mmol/L cobalt chloride as previously reported (Gurevich et al., 2001; Petronilli et al., 1998)."}, "[4]": {"system": "PT pore", "test": "mitochondrial Dcm (DiOC6), ROS production (HE) and PI staining by flow cytometry in BNIP3-transfected 293T cells", "format": "cell-based", "method": "Changes in mitochondrial function were determined by incubating 10 6 293T cells, transiently transfected via the CaP04 method, with either 1 mM JC-1, 40 nM DiOC6, or 2 mM dihydroethidium (HE) (all from Molecular Probes, Inc.) for 30 minutes at 37° C. in Hanks' balanced salt solution (Gibco-BRL). Cells were scored using a FACScalibur flow cytometer (Becton-Dickinson, San Jose, Calif.), and data were analyzed on Celiquest software, version 3.1 (Becton-Dickinson). Controls were performed in the presence or absence of […] mClCCP (Sigma) or an excess of 30% H2 02. For inhibition experiments, cyclosporin A (Sigma) or bongkrekic acid (a gift from J. A. Duine, Delft University, Delft, The Netherlands) was added 2 hours prior to transfection. All cells were harvested 8 hours after transfection and stained with 40 nM DiOC6, 2 mM HE, or 1 mg of propidium iodide (PI) (Sigma) per ml. In all cases, samples were gated to exclude cellular debris."}, "[5]": {"system": "primary hippocampal neurons", "test": "excitotoxic cell death of primary hippocampal neurons, trypan blue exclusion", "format": "cell-based, rat", "method": "(§1) Primary hippocampal neurons were prepared from 18-day-old embryonic Sprague-Dawley rats as described previously by Haughey, N. J. et al. (2001). Briefly, hippocampal tissue was dissociated by gentle tituration in a calcium-free Hank's balanced salt solution and was centrifuged at 1000×g. Cells were resuspended in Dulbecco's modified Eagle's medium (DMEM)/F12 nutrient mixture containing 10% heat-inactivated fetal bovine serum and 1% antibiotic solution (104 IU of penicillin G/ml, 10 mg streptomycin/ml and 25 μg amphotericin B/ml) in 0.9% NaCl (Sigma, St Louis, Mo., USA). Hippocampal neurons were plated at a density of 2×10^5 cells/ml on 12-mm diameter poly d-lysine-coated glass coverslips. Three hours after plating, the media was replaced with serum-free Neurobasal media containing 1% B-27 supplement (Gibco, Rockville, Md., USA).\nTo determine the extent to which NMDA-type glutamate receptors were involved in BNIP3 expression and excitotoxic cell death, the inventors used the agonist NMDA (100 μM) in the absence or presence of the NMDA receptor antagonist MK-801 (10 μM). To determine the extent to which caspase activation contributes to BNIP3-mediated cell death, hippocampal cells were incubated in the absence or presence of the broad spectrum cell permeable caspase inhibitors z-VAD-FMK (50 μM) and BOC-D-FMK (50 μM); these inhibitors were applied 30 minutes prior to application of glutamate or NMDA. […]\nIn vitro cell death was estimated using trypan blue exclusion. Cells were incubated in 0.4% trypan blue solution for 30 minutes and then counted on a bright-field microscope. Nonviable cells were distinguished by their dark blue staining. To examine nuclear morphology, nuclear DNA was stained with Hoescht 33342. DNA fragmentation was detected by TUNEL using an in situ cell death detection kit with fluorescein. Statistical analyses were by ANOVA with Tukey's post-test."}, "[6]": {"system": "BNIP3", "test": "BNIP3 immunohistochemistry in primary hippocampal neurons after glutamate", "format": "cell-based, rat", "conditions": "100 μM glutamate", "method": "as §1\nFor immunohistochemistry and in situ hybridization, rats were perfused transcardially with 0.9% saline and then 4% paraformaldehyde. Brains were carefully removed and post-fixed overnight in PBS containing 4% paraformaldehyde. After rinsing in PBS, the brains were placed in PBS containing 0.5 M sucrose (pH 7.3) at 4° C. until buoyancy was lost. […] Brain sections were hybridized with the probe, incubated with an alkaline phosphatase-conjugated anti-digoxigenin antibody, and labeled cells were detected with BCIP/NBT."}, "[7]": {"system": "BNIP3", "test": "intrastriatal injection in rats, BNIP3 immunohistochemistry and in situ hybridization", "format": "in vivo", "conditions": "rat", "method": "Male Sprague-Dawley rats, with body weights ranging between 200 to 250 g, were obtained from the University of Manitoba Central Animal Care breeding facility. All procedures followed Canadian Council on Animal Care guidelines and were approved by the Animal Care Committee at the University of Manitoba. Animals were anesthetized with 74 mg/kg sodium pentobarbital (i.p.) and placed in a stereotaxic surgery frame. Unilateral intrastriatal injections were performed using the following coordinates (in mm); AP […], ML 3.0 and DV 4.5 (Paxinos, G. et al. (1986)). Drugs were administered over a 5 minute period in a volume of 1 μl using a 10 μl syringe fitted with a 30-gauge needle. Following injection, the needle was left in place for 5 minutes before being slowly withdrawn to allow diffusion of the drug away from the injection site. Kainic acid, dissolved in 50 mM Tris-HCl with the pH adjusted to 7.4 with NaOH, was administered at a dose of 2.5 nmol. Control rats received unilateral injections of 1 μl 50 mM Tris-HCl, pH 7.4. […]\nFor immunohistochemistry and in situ hybridization, rats were perfused transcardially with 0.9% saline and then 4% paraformaldehyde. […] Brain sections were hybridized with the probe, incubated with an alkaline phosphatase-conjugated anti-digoxigenin antibody, and labeled cells were detected with BCIP/NBT."}, "[8]": {"conditions": "drug 2 hours prior to transfection, harvested 8 hours posttransfection, 25 and 50 mM cyclosporin A, 100 mM bongkrekic acid"}}, "note": "“Also recorded” adds a separate entry of the source."}
{"smiles": "CC(=O)N[C@@H](CSC(=O)[C@]1([C@@H](O)C(C)C)NC(=O)[C@H](C)[C@@H]1O)C(=O)O", "note": "[Lactacystin]", "values": [{"measurement": "degradation of the BNIP3 protein (western blot)", "setting": "[1]", "result": "slows the degradation"}]}
{"smiles": "CO[C@H](C/C=C\\C=C\\CC/C=C/C[C@H](C)/C=C/C(=C\\C(=O)O)CC(=O)O)/C(C)=C\\C=C(/C)C(=O)O", "note": "[bongkrekic acid]", "values": [{"measurement": "BNIP3-induced mitochondrial defects and cell death", "setting": "[2]", "result": "prevented"}, {"measurement": "BNIP3-induced loss of mitochondrial calcein staining", "setting": "[3]", "result": "suppressed"}, {"measurement": "maximum suppression of BNIP3 effects, of that in control cells", "setting": "[4]; Dcm suppression, ROS generation and cell death", "result": "about 50%"}, {"measurement": "cell death (PI staining) in BNIP3 transfectants", "setting": "[4]; drug 2 hours prior to transfection, harvested 8 hours posttransfection, 50 mM cyclosporin A, 100 mM bongkrekic acid", "result": "dose-dependent reversal; also recorded: significantly suppressed"}, {"measurement": "Dcm suppression (DiOC6) in BNIP3 transfectants", "setting": "[4]; [8]", "result": "dose-dependent reversal; also recorded: significantly inhibited"}, {"measurement": "ROS generation (HE fluorescence) in BNIP3 transfectants", "setting": "[4]; [8]", "result": "dose-dependent reversal; also recorded: inhibited"}]}
{"smiles": "N[C@@H](CCC(=O)O)C(=O)O", "note": "[glutamate]", "values": [{"measurement": "hippocampal neurons killed", "setting": "[5]; 10 μM glutamate for 6 hours, then Neurobasal media 24 hours", "result": 40, "unit": "%"}, {"measurement": "cells stained positively for trypan blue", "setting": "[5]; 100 μM glutamate for 6 hours, then Neurobasal media 24 hours", "result": 70, "unit": "%"}, {"measurement": "neuronal cell death (trypan blue exclusion)", "setting": "[5]; 6 hours after application, p<0.01", "result": "significantly increased"}, {"measurement": "cells stained positive for BNIP3", "setting": "[6]", "result": "more than 50%"}]}
{"smiles": "C=C(C)[C@H]1CN[C@H](C(=O)O)[C@H]1CC(=O)O", "note": "[kainic acid]", "values": [{"measurement": "BNIP3 expression in striatum (immunohistochemistry)", "setting": "[7]; intrastriatal 1 μl, 2.5 nmol kainic acid, 5 nmol CNQX alone or mixed with kainic acid, 48 hours", "result": "observed only in those rats that received kainic acid alone"}, {"measurement": "levels of BNIP3 mRNA (in situ hybridization)", "setting": "[7]; intrastriatal kainic acid", "result": "increased"}]}
